From patent US11312676B2, “Small molecule stimulators of steroid receptor coactivator proteins and their use in the treatment of cancer” (BAYLOR COLLEGE OF MEDICINE, priority 2014, dated 2022) come the findings set out here.

The subject of one data set is H1299 (lung) cells. Nature of the data set: MTS cell viability assay, H1299. As to conditions: H1299, 48 hours. Type of data set: cell-based. The method, then:
Cell lines were maintained in DMEM (HeLa, MCF-7, HepG2), RPMI 1640 (H1299), or DMEM/F12 (PC-3) supplemented with 10% fetal calf serum, penicillin and streptomycin (100 U/ml). Primary mouse hepatocytes were isolated and cultured. Mouse embryonic fibroblasts (MEF) were cultured in DMEM. All cells were maintained at 37° C. under 5% CO2.
Cells were seeded in 96-well plates and allowed to reach 70% to 80% confluence. After indicated compound treatments, relative numbers of viable cells were measured by MTS assay using the Cell Titer 96 Aqueous One Solution Cell Proliferation Assay (Promega).
For orientation: Formazan colour is commonly taken as a measure of viable cells.

The subject of data set [1] is human pediatric GBM tumor. Nature of the data set: Patient derived xenograft pediatric GBM model, survival. Format: in vivo. As to conditions: treated every day for 14 days, tumor cells in mouse brainstem. As to the method:
A tumor from a human patient was transferred directly into a mouse host (patient derived xenograft) without culturing on a plastic substrate. Tumor cells (50,000) were injected into mouse brainstems and allowed to proliferate for 14 days. Animals were treated every day with either MCB-613 (test group) or vehicle (control group) for 14 days. The animals were then housed with no further experimental manipulation. Overall survival was recorded from the experimental and control groups.
(In general: A xenograft is tissue or cells of one species grown in another, often human tumour cells in immunodeficient mice.)

The structures appear in SMILES notation.

Take `CCC1CC(=Cc2cccnc2)C(=O)C(=Cc2cccnc2)C1` (centres unmarked) [MCB-613, 4-Ethyl-2,6-bis-pyridin-3-ylmethylene-cyclohexanone]: in the data set on H1299 (lung) cells, the “cytotoxicity, cell viability” value is recorded as “efficiently kill”. Moreover, the overall survival entry in data set [1] is on record as “extends survival time”.
